Test results published in US20260055126A1, “SMALL MOLECULE COMPOUNDS WITH PHOSPHORYLATED ARYL STRUCTURES AND USE THEREOF” (HANGZHOU PHECDAMED CO., LTD., priority 2022, published 2026).

Experiments:
Type in all cases: binding
Details in all cases: 10 μM TEAD protein, 50 μM test compound
[1] = tested on: recombinant TEAD1 protein (194-411, Uniprot ID: P28347); experiment: Thermal shift assay (protein melting point curve), TEAD1; parameters: key to the marks not given beside the values
Protocol: (§1) The ability of the compounds to increase the melting point of purified recombinant TEAD1/2/3/4 proteins is tested using a thermal shift assay. The strength of the compound's binding to the protein and the selectivity of the compound's binding to the four TEAD subtypes are evaluated by calculating the melting point shift ΔTm−° C. […] Based on the Δ Tm value, the ability of the compound to bind to the TEAD protein is divided into four levels: ++++, +++, ++, +.
(§2) Test method of protein melting point curve: 10 μL of the protein melting point curve experimental system (10 μM TEAD protein, 50 μM test compound, SYPRO® orange (55692, sigma)) is prepared in a 384-well fluorescence quantitative PCR plate according to the following system, and reacted at 4° C. in the dark for 20 minutes. On-machine reaction: ABI QuantStudio Dx fluorescence quantitative PCR instrument; program: from 25° C. to 80° C., increasing the temperature at a rate of 0.05° C./s, and reading the fluorescence channel signal of the corresponding wavelength of SYPRO® orange every second.

[2] = biological target: recombinant TEAD2 protein (218-447, Uniprot ID: Q15562) (Homo sapiens (Human), UniProt Q15562); experiment: Thermal shift assay (protein melting point curve), TEAD2
Protocol: as §1, §2

[3] = biological target: recombinant TEAD3 protein (218-435, Uniprot ID: Q99594) (Homo sapiens (Human), UniProt Q99594); experiment: Thermal shift assay (protein melting point curve), TEAD3
Protocol: as §1, §2

[4] = biological target: recombinant TEAD4 protein (217-434, Uniprot ID: Q15561) (Homo sapiens (Human), UniProt Q15561); experiment: Thermal shift assay (protein melting point curve), TEAD4
Protocol: as §1, §2

recombinant TEAD2 protein (218-447, Uniprot ID: Q15562), sequence (Q15562 218-447): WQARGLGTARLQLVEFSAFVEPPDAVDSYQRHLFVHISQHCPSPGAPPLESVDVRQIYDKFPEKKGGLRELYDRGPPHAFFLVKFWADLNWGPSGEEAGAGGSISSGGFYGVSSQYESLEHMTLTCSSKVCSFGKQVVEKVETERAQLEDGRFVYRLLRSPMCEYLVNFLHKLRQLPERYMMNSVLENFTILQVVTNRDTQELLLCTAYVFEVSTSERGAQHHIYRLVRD
recombinant TEAD4 protein (217-434, Uniprot ID: Q15561), sequence (Q15561 217-434): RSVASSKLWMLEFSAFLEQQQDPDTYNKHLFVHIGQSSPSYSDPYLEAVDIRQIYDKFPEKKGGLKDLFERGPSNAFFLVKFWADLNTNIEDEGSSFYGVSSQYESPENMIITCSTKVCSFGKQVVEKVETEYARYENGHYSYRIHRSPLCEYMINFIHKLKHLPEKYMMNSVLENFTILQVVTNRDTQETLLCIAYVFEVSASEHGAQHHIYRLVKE
recombinant TEAD3 protein (218-435, Uniprot ID: Q99594), sequence (Q99594 218-435): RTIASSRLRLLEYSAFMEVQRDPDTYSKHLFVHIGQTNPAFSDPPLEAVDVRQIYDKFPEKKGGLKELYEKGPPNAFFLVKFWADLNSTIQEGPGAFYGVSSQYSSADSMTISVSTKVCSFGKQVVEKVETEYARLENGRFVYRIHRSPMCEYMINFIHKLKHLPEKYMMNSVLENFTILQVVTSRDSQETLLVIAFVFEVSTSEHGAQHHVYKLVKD

SMILES	Δ T m (TEAD1) [1]	Δ T m (TEAD2) [2]	Δ T m (TEAD3) [3]	Δ T m (TEAD4) [4]
CP(C)(=O)c1ccc(Nc2ccc(C(F)(F)F)cc2)c(-c2cn(Cc3ccccn3)cn2)c1 [Compound 2]	+++	+	++	++
CP(C)(=O)c1ccc(Nc2ccc(C(F)(F)F)cc2)c(-c2nnn(Cc3ccccn3)n2)c1 [Compound 3]	+++	+	+	++
Cc1nnc(-c2cc(P(C)(C)=O)ccc2NCc2ccc(C(F)(F)F)cc2)o1 [Compound 4]	+++	++	++	+
Cc1nc(-c2cc(P(C)(C)=O)ccc2NCc2ccc(C(F)(F)F)cc2)no1 [Compound 5]	++++	+++	++	++++
CP(C)(=O)c1ccc(Nc2ccc(C(F)(F)F)cc2)c(-c2nnc(CO)o2)c1 [Compound 11]	+++	++	+	++
CP(C)(=O)c1ccc(Nc2ccc(C(F)(F)F)cc2)c(-c2nnc(NCCO)o2)c1 [Compound 12]	++	+	+	+
CP(C)(=O)c1ccc(Nc2cccc(C(F)(F)F)c2)c(-c2nccc(OC3COC3)n2)c1 [Compound 13]	+++	+	+	+
CP(C)(=O)c1ccc(Nc2ccc(C(F)(F)F)cc2)c(-c2cnn(C3COC3)c2)c1 [Compound 15]	+++	++	++	+++
CP(C)(=O)c1ccc(Nc2ccc(C(F)(F)F)cc2)c(-c2cnn(CC3COC3)c2)c1 [Compound 16]	+++	++	++	+++
CP(C)(=O)c1ccc(Nc2ccc(C(F)(F)F)cc2)c(-c2nccc(OCCO)n2)c1 [Compound 19]	++	++	++	+
CP(C)(=O)c1ccc(OCc2ccc(C(F)(F)F)cc2)c(-c2nccc(OC3COC3)n2)c1 [Compound 20]	+++	++	++	++
CC1OCCC1S(=O)(=O)c1csc(-c2cc(P(C)(C)=O)ccc2Nc2ccc(C(F)(F)F)cc2)n1 (stereo not shown) [Compound 23]	++	+	+	+
CP(C)(=O)c1ccc(Nc2ccc(C(F)(F)F)cc2)c(-c2ccn(C3CCOCC3)n2)c1 [Compound 25]	++	++	++	++
CP(C)(=O)c1ccc(Nc2ccc(Br)cc2)c(-c2nccc(OC3COC3)n2)c1 [Compound 26]	++++	++	+	++++
CP(C)(=O)c1ccc(Nc2ccc(C(F)(F)F)cc2)c(-n2cc(C3CCOCC3)cn2)c1 [Compound 33]	++	+	+	++
CP(C)(=O)c1ccc(Nc2ccc(C(F)(F)F)cc2)c(-c2ncn(C3CCOCC3)n2)c1 [Compound 34]	++	+	+	++
CP(C)(=O)c1ccc(Nc2ccc(C(F)(F)F)cc2)c(-c2nccc(OC3COC3)c2C#N)c1 [Compound 36]	++	+	+	+++
CP(C)(=O)c1ccc(NC23CC(C(F)(F)F)(C2)C3)c(-c2nccc(OC3COC3)n2)c1 [Compound 37]	++	++	++	++
CP(C)(=O)c1ccc(NC23CCC(CC2)CC3)c(-c2nccc(OC3COC3)n2)c1 [Compound 38]	+++	+	+	+++
CP(C)(=O)c1cnc(Nc2ccc(C(F)(F)F)cc2)c(-c2nccc(OC3COC3)n2)c1 [Compound 39]	++++	+	+	++

SMILES	Δ T m (TEAD1) [1]	Δ T m (TEAD2) [2]	Δ T m (TEAD3) [3]	Δ T m (TEAD4) [4]
CP(C)(=O)c1ccc(Nc2ccc(C(F)(F)F)cc2)c(-c2ncn3ccccc23)c1 [Compound 40]	++	++	++	++
CP(C)(=O)c1ccc(Nc2ccc(C(F)(F)F)cc2)c(-c2cn(C3COC3)nn2)c1 [Compound 41]	+++	+++	++	+++
CP(C)(=O)c1ccc(NC2CCc3cc(C(F)(F)F)ccc32)c(-c2ncccn2)c1 (stereo not shown) [Compound 42]	++	++	+	+
CP(C)(=O)c1ccc(NCc2cc(F)cc(F)c2)c(-c2ncccn2)c1 [Compound 44]	++	++	+	++
CP(C)(=O)c1ccc(NCC2CCC(C(F)(F)F)CC2)c(-c2ncccn2)c1 (stereo not shown) [Compound 46]	+++	++	++	++
CP(C)(=O)c1ccc(NCc2ccc(C(F)(F)F)cc2)c(-c2cn(C3COC3)cn2)c1 [Compound 47]	+++	+	++	++
COCc1cccn(-c2cc(P(C)(C)=O)ccc2Nc2ccc(C(F)(F)F)cc2)c1=O [Compound 48]	++	+	+	+
Cc1nc(-c2cc(P(C)(C)=O)ccc2NCc2cccc(C(F)(F)F)c2)no1 [Compound 49]	+++	+	++	++
CP(C)(=O)c1ccc(NCc2ccc(C(F)(F)F)cc2)c(-c2cnn(C3COC3)c2)c1 [Compound 50]	++	++	++	++
CP(C)(=O)c1ccc(Nc2ccc(C(F)(F)F)cc2)c(-c2cnn(C3CCOCC3)c2)c1 [Compound 51]	++	++	++	++
CP(C)(=O)c1ccc(NCc2cccc(C(F)(F)F)c2)c(-c2nccc(OC3COC3)n2)c1 [Compound 52]	++	++	+	++
CP(C)(=O)c1ccc(NCc2ccc(C(F)(F)F)cc2)c(-c2nccc(N3CCC(O)C3)n2)c1 (stereo not shown) [Compound 54]	++	+	+	++
CP(C)(=O)c1ccc(NCc2ccc(C(F)(F)F)cc2)c(-c2ncn(C3CCOCC3)n2)c1 [Compound 55]	++	+	+	++
CP(C)(=O)c1ccc(Nc2ccc(C(F)(F)F)cc2)c(-c2nnc(COC3COC3)o2)c1 [Compound 57]	++	+	+	+
CP(C)(=O)c1ccc(NCc2ccc(C(F)(F)F)cc2)c(-n2cc(C3CCOCC3)cn2)c1 [Compound 58]	++	+	+	+
COCc1cccn(-c2cc(P(C)(C)=O)ccc2NCc2ccc(C(F)(F)F)cc2)c1=O [Compound 59]	++	+	+	+
O=P1(c2ccc(Nc3ccc(C(F)(F)F)cc3)c(-c3nccc(OC4COC4)n3)c2)CCNCC1 [Compound 60]	+++	+	+	++
CP(C)(=O)c1ccc(NCc2cc(F)cc(F)c2)c(-c2nccc(OC3COC3)n2)c1 [Compound 62]	++	+	+	+
Cn1cnc(-c2cc(P(C)(C)=O)ccc2NC2CCC(C(F)(F)F)CC2)c1 (stereo not shown) [Compound 63]	++++	+++	+	+++
CP(C)(=O)c1ccc(Nc2ccc(C(F)(F)F)cc2)c(-c2nccc(OC(F)F)n2)c1 [Compound 65]	+++	++	+	++
